The results in this text go back to PMC5836741 (Journal of medicinal chemistry, 2017).

For one assay, the target named is M3R (Homo sapiens, UniProt P20309). The experiment in a line: ERK1/2 phosphorylation. The note with it: CHO, read-out: ERK1/2 phosphorylation Emax M3R.
The target in another assay is hM3 mAChR (Homo sapiens, UniProt P20309). The experiment in a line: IP-One accumulation assay, CHO cells, M3R. The note with it: read-out: IP accumulation Emax M3R. The assay is classed as cell-based.
Assay [1] deals with T1, M2R (Homo sapiens, UniProt P08172).
T1 sequence (P08172 1-466): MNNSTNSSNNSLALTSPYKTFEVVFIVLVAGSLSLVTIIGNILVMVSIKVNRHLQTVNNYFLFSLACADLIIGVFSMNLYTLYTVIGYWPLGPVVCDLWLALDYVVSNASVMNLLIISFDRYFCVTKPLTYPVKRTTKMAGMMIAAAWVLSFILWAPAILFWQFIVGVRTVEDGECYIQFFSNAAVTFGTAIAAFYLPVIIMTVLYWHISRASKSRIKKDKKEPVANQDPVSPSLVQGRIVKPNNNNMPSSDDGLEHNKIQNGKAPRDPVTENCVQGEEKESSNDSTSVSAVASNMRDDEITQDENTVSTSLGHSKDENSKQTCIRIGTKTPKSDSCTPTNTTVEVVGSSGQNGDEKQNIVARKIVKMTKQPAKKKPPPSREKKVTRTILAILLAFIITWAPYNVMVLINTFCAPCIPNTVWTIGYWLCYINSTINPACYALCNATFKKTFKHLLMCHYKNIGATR
Nature of the assay: Whole cell radioligand binding, CHO cells, M2R. The note with it: M2 vs M1.

The target in assay [2] is T1, M2R. Nature of the assay: β-Arrestin recruitment assay, HEK cells, M2-TEV-tTA. The assay is classed as cell-based. The conditions noted are these: versus acetylcholine as reference, against the cAMP assay.

Sequence of hM3 mAChR (P20309 whole entry): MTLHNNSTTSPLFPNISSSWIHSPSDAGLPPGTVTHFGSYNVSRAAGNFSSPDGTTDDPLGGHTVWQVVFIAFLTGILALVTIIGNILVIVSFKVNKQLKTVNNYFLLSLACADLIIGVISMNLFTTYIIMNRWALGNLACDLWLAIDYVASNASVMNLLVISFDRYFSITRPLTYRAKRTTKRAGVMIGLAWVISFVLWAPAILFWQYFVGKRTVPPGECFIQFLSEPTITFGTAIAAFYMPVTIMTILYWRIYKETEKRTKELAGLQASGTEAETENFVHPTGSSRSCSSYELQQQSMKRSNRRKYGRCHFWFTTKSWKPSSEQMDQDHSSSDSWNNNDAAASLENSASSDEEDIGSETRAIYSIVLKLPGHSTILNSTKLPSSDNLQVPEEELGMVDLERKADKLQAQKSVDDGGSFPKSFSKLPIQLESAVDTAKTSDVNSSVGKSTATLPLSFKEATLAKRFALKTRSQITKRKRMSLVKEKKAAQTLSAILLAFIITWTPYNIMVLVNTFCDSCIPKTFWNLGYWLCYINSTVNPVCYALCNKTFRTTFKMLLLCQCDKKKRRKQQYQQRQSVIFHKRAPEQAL
Sequence of M3R (P20309 whole entry): as above

Turning to `CC(=O)OCC[N+](C)(C)C` [acetylcholine], the Emax at M3R and at hM3 mAChR was 100% each time.
`C[N+](C)(C)CCc1ccc2c(c1)OCC2.O=C[O-]` [Compound 28]: the “selectivity over M1 receptor” value on M2R [1] is recorded as 4 fold. Further, on M2R [2], the bias toward arrestin is on record as 20 fold.
